Measured values reported in ChEMBL document CHEMBL3875147 (Eur J Med Chem, 2016).
Values after ≈ are worked out from the molar mass of the structure shown.

Key:
Staphylococcus aureus [1] = experiment: Potency index, ratio of MIC for ciprofloxacin to MIC for test compound for antibacterial activity against Staphylococcus aureus ATCC 25923; type: functional
Staphylococcus aureus [2] = experiment: Antibacterial activity against Staphylococcus aureus ATCC 25923 incubated for 18 to 24 hrs by micro-dilution method; type: functional
[3] = system: Staphylococcus epidermidis; experiment: Antibacterial activity against Staphylococcus epidermidis ATCC 35984 incubated for 18 to 24 hrs by micro-dilution method; type: functional; details: RP62A
Enterococcus faecalis = experiment: Antibacterial activity against clinical isolate of Enterococcus faecalis incubated for 18 to 24 hrs by micro-dilution method; type: functional
Escherichia coli [4] = experiment: Antibacterial activity against Escherichia coli ATCC 25922 incubated for 18 to 24 hrs by micro-dilution method; type: functional
Pseudomonas aeruginosa [5] = experiment: Antibacterial activity against Pseudomonas aeruginosa ATCC 27853 incubated for 18 to 24 hrs by micro-dilution method; type: functional
Pseudomonas aeruginosa [6] = experiment: Antibacterial activity against clinical isolate of Pseudomonas aeruginosa incubated for 18 to 24 hrs by micro-dilution method; type: functional
[7] = Antibacterial activity against Aeromonas hydrophila ATCC 7966 incubated for 18 to 24 hrs by micro-dilution method; type: functional, Aeromonas hydrophila subsp. hydrophila ATCC 7966
Salmonella typhi = experiment: Antibacterial activity against clinical isolate of Salmonella typhi incubated for 18 to 24 hrs by micro-dilution method; type: functional, Salmonella enterica subsp. enterica serovar Typhi; details: Salmonella enterica
Salmonella typhimurium = experiment: Antibacterial activity against clinical isolate of Salmonella typhimurium incubated for 18 to 24 hrs by micro-dilution method; type: functional, Salmonella enterica subsp. enterica serovar Typhimurium; details: Salmonella enterica
[8] = system: Sphingomonas paucimobilis; experiment: Antibacterial activity against Sphingomonas paucimobilis MTCC 6362 incubated for 18 to 24 hrs by micro-dilution method; type: functional
Plesiomonas shigelloides [9] = experiment: Antibacterial activity against Plesiomonas shigelloides ATCC 14029 incubated for 18 to 24 hrs by micro-dilution method; type: functional
[10] = system: Staphylococcus epidermidis; experiment: Potency index, ratio of MIC for ciprofloxacin to MIC for test compound for antibacterial activity against Staphylococcus epidermidis ATCC 35984; type: functional, RP62A
Escherichia coli [11] = experiment: Potency index, ratio of MIC for ciprofloxacin to MIC for test compound for antibacterial activity against Escherichia coli ATCC 25922; type: functional
Plesiomonas shigelloides [12] = experiment: Potency index, ratio of MIC for ciprofloxacin to MIC for test compound for antibacterial activity against Plesiomonas shigelloides ATCC 14029; type: functional
[13] = Hemolytic activity in human RBC at 100 uM measured after 1 hr by UV-vis absorbance method relative to control; type: ADME, cell-based, Erythrocyte; details: red blood cells (RBC), read-out: Activity

Row | Structure (SMILES) | Ratio (Staphylococcus aureus [1]) | MIC (Staphylococcus aureus [2]) [µM] | MIC [3] [µM] | MIC (Enterococcus faecalis) [µM] | MIC (Escherichia coli [4]) [µM] | MIC (Pseudomonas aeruginosa [5]) [µM] | MIC (Pseudomonas aeruginosa [6]) [µM] | MIC [7] [µM] | MIC (Salmonella typhi) [µM] | MIC (Salmonella typhimurium) [µM] | MIC [8] [µM] | MIC (Plesiomonas shigelloides [9]) [µM] | Ratio [10] | Ratio (Escherichia coli [11]) | Ratio (Plesiomonas shigelloides [12]) | hemolysis at 1 h, 100 µM [13] [%]
1 | O=C(OCc1cn(-c2cccc(Cl)c2)nn1)c1cn(C2CC2)c2cc(N3CCN(Cc4cn(-c5cccc(Cl)c5)nn4)CC3)c(F)cc2c1=O | 8 - 17 | 1.09 (≈ 0.779 µg/mL) | 1.09 (≈ 0.779 µg/mL) | 8.75 (≈ 6.25 µg/mL) | 1.09 (≈ 0.779 µg/mL) | 17.5 (≈ 12.5 µg/mL) | 35 (≈ 25 µg/mL) | 35 (≈ 25 µg/mL) | 140 (≈ 100 µg/mL) | 17.5 (≈ 12.5 µg/mL) | 17.5 (≈ 12.5 µg/mL) | 1.09 (≈ 0.779 µg/mL) | 8 - 17 | 8 - 17 | 8 - 17 | 24.2
2 | CC(=O)c1ccc(-n2cc(COC(=O)c3cn(C4CC4)c4cc(N5CCN(Cc6cn(-c7ccc(C(C)=O)cc7)nn6)CC5)c(F)cc4c3=O)nn2)cc1 | – | 2.14 (≈ 1.56 µg/mL) | 2.14 (≈ 1.56 µg/mL) | 4.28 (≈ 3.12 µg/mL) | 2.14 (≈ 1.56 µg/mL) | 4.28 (≈ 3.12 µg/mL) | 8.56 (≈ 6.25 µg/mL) | 8.56 (≈ 6.25 µg/mL) | – | 8.56 (≈ 6.25 µg/mL) | 17.1 (≈ 12.5 µg/mL) | 2.14 (≈ 1.56 µg/mL) | – | – | – | 8.05
3 | O=C(OCc1cn(-c2ccc(F)c(Cl)c2)nn1)c1cn(C2CC2)c2cc(N3CCN(Cc4cn(-c5ccc(F)c(Cl)c5)nn4)CC3)c(F)cc2c1=O | – | 8.33 (≈ 6.25 µg/mL) | 8.33 (≈ 6.25 µg/mL) | 16.6 (≈ 12.5 µg/mL) | 8.33 (≈ 6.25 µg/mL) | 16.6 (≈ 12.5 µg/mL) | 16.6 (≈ 12.5 µg/mL) | 33.3 (≈ 25 µg/mL) | – | 16.6 (≈ 12.5 µg/mL) | 16.6 (≈ 12.5 µg/mL) | 4.16 (≈ 3.12 µg/mL) | – | – | – | 5.36
4 | O=C(OCc1cn(-c2ccc([N+](=O)[O-])cc2)nn1)c1cn(C2CC2)c2cc(N3CCN(Cc4cn(-c5ccc([N+](=O)[O-])cc5)nn4)CC3)c(F)cc2c1=O | – | 4.25 (≈ 3.13 µg/mL) | 1.06 (≈ 0.78 µg/mL) | 8.5 (≈ 6.25 µg/mL) | 4.25 (≈ 3.13 µg/mL) | 8.5 (≈ 6.25 µg/mL) | 17 (≈ 12.5 µg/mL) | 17 (≈ 12.5 µg/mL) | – | 17 (≈ 12.5 µg/mL) | 17 (≈ 12.5 µg/mL) | 4.25 (≈ 3.13 µg/mL) | – | – | – | 5.61
5 | COc1ccccc1-n1cc(COC(=O)c2cn(C3CC3)c3cc(N4CCN(Cc5cn(-c6ccccc6OC)nn5)CC4)c(F)cc3c2=O)nn1 | – | 35.4 (≈ 25 µg/mL) | 35.4 (≈ 25 µg/mL) | 35.4 (≈ 25 µg/mL) | 8.86 (≈ 6.25 µg/mL) | 17.7 (≈ 12.5 µg/mL) | 35.4 (≈ 25 µg/mL) | 70.8 (≈ 50 µg/mL) | 35.4 (≈ 25 µg/mL) | 4.43 (≈ 3.13 µg/mL) | 4.43 (≈ 3.13 µg/mL) | 4.43 (≈ 3.13 µg/mL) | – | – | – | 7.65
6 | CCCCCc1ccc(-n2cc(COC(=O)c3cn(C4CC4)c4cc(N5CCN(Cc6cn(-c7ccc(CCCCC)cc7)nn6)CC5)c(F)cc4c3=O)nn2)cc1 | – | 63.6 (≈ 50 µg/mL) | 127 (≈ 100 µg/mL) | > 127 | > 127 | > 127 | 31.8 (≈ 25 µg/mL) | > 127 | > 127 | > 127 | > 127 | 63.6 (≈ 50 µg/mL) | – | – | – | 5.32
7 | O=C(OCc1cn(-c2ccccc2Cl)nn1)c1cn(C2CC2)c2cc(N3CCN(Cc4cn(-c5ccccc5Cl)nn4)CC3)c(F)cc2c1=O | – | 8.75 (≈ 6.25 µg/mL) | 1.09 (≈ 0.779 µg/mL) | 35 (≈ 25 µg/mL) | 2.19 (≈ 1.56 µg/mL) | 8.75 (≈ 6.25 µg/mL) | 35 (≈ 25 µg/mL) | 35 (≈ 25 µg/mL) | 140 (≈ 100 µg/mL) | 17.5 (≈ 12.5 µg/mL) | 35 (≈ 25 µg/mL) | 2.19 (≈ 1.56 µg/mL) | – | – | – | 5.85
8 | O=C(OCc1cn(-c2ccccc2)nn1)c1cn(C2CC2)c2cc(N3CCN(Cc4cn(-c5ccccc5)nn4)CC3)c(F)cc2c1=O | – | 38.7 (≈ 25 µg/mL) | 38.7 (≈ 25 µg/mL) | > 155 | > 155 | > 155 | > 155 | > 155 | > 155 | > 155 | > 155 | 9.68 (≈ 6.25 µg/mL) | – | – | – | 4.65
9 | O=C(OCc1cn(-c2ccc(F)cc2Cl)nn1)c1cn(C2CC2)c2cc(N3CCN(Cc4cn(-c5ccc(F)cc5Cl)nn4)CC3)c(F)cc2c1=O | – | 2.08 (≈ 1.56 µg/mL) | 4.16 (≈ 3.12 µg/mL) | 16.6 (≈ 12.5 µg/mL) | 16.6 (≈ 12.5 µg/mL) | 16.6 (≈ 12.5 µg/mL) | 16.6 (≈ 12.5 µg/mL) | 66.6 (≈ 50 µg/mL) | – | 33.3 (≈ 25 µg/mL) | 33.3 (≈ 25 µg/mL) | 33.3 (≈ 25 µg/mL) | – | – | – | 29.8
10 | O=C(O)c1cn(C2CC2)c2cc(N3CCNCC3)c(F)cc2c1=O [CIPROFLOXACIN] | – | – | 9.43 (≈ 3.12 µg/mL) | – | – | – | – | – | – | – | – | 9.43 (≈ 3.12 µg/mL) | – | – | – | 5.23
